Test results published in ChEMBL document CHEMBL4420076, “Amylin and calcitonin receptor agonist” (2017).
pEC50, pIC50: −log10 of the molar value. Numbered stars: 1 amine (or outer) side, 2 acyl side, 3 side chain; on linkers, the order of the positions; unused ones are H or OH. Peptide text beside a SMILES is read from it. * marks the point of attachment. C18 diacid = O=C(O)CCCCCCCCCCCCCCCCC(=O)*; γGlu = O=C(O)[C@H](CCC(=O)[*:2])N[*:1]; Palmitoyl = CCCCCCCCCCCCCCCC(=O)*

Columns and labels:
[1] = Solubility in 100 mM bistrispropane buffer at pH 8.0 incubated for 18 hrs by UPLC analysis; type: physicochemical
[2] = Solubility in 100 mM glycylglycine buffer at pH 4.0 incubated for 18 hrs by UPLC analysis; type: physicochemical
Calcitonin receptor = target: T1, Calcitonin receptor (Homo sapiens, UniProt P30988); experiment: Agonist activity at human calcitonin receptor expressed in BHK570 cells assessed as increase in intracellular cAMP concentration incubated for 3 hrs in absence of albumin by CRE luciferase reporter gene assay; type: functional, cell-based
T1 sequence (P30988 whole entry): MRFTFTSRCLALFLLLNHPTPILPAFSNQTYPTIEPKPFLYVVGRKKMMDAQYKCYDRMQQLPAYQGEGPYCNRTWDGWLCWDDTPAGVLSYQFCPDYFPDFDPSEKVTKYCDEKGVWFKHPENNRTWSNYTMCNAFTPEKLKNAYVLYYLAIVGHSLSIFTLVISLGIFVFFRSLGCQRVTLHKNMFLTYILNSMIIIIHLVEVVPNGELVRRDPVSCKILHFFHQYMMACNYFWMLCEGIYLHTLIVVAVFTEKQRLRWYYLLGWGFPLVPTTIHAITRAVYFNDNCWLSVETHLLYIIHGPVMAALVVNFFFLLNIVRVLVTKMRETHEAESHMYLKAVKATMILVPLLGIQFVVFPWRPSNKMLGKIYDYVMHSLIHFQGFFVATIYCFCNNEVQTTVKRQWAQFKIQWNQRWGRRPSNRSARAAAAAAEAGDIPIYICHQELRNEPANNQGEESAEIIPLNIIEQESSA

[3] = Solubility in 100 mM glycylglycine buffer at pH 5.0 incubated for 18 hrs by UPLC analysis; type: physicochemical
[4] = target: T2, Amylin receptor AMY3; CALCR/RAMP3 (Homo sapiens, UniProt O60896+P30988); experiment: Displacement of [125I]-labeled rat amylin from human amylin receptor expressed in BHK tkts13 whole cells co-expressing RAMP3 incubated for 60 mins by scintillation proximity assay; type: cell-based
T2 sequence (P30988 whole entry): T1 sequence (P30988 whole entry)
T2 sequence (O60896 whole entry): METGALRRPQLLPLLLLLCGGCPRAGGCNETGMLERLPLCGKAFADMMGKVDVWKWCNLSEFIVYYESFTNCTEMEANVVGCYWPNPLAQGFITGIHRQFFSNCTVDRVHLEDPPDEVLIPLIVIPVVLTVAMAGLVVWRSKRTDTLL

[5] = Solubility in 100 mM bistrispropane buffer at pH 7.0 incubated for 18 hrs by UPLC analysis; type: physicochemical
[6] = Solubility in 100 mM bistrispropane buffer at pH 6.5 incubated for 18 hrs by UPLC analysis; type: physicochemical
[7] = Solubility in 100 mM glycylglycine buffer at pH 3.0 incubated for 18 hrs by UPLC analysis; type: physicochemical
[8] = Solubility in 100 mM bistrispropane buffer at pH 7.5 incubated for 18 hrs by UPLC analysis; type: physicochemical
[9] = target: T2, Amylin receptor AMY3; CALCR/RAMP3; experiment: Agonist activity at human amylin receptor expressed in BHK570 cells co-expressing RAMP3 assessed as increase in intracellular cAMP concentration incubated for 3 hrs in absence of albumin by CRE luciferase reporter gene assay; type: functional, cell-based
[10] = Solubility in 100 mM bistrispropane buffer at pH 6.0 incubated for 18 hrs by UPLC analysis; type: physicochemical

Structure (SMILES) | solubility at 18 h [1] [µM] | solubility at 18 h [2] [µM] | pEC50 (Calcitonin receptor) | solubility at 18 h [3] [µM] | pIC50 [4] | solubility at 18 h [5] [µM] | solubility at 18 h [6] [µM] | solubility at 18 h [7] [µM] | solubility at 18 h [8] [µM] | pEC50 [9] | solubility at 18 h [10] [µM]
CC(C)C[C@H](NC(=O)[C@H](C)NC(=O)[C@H](C)NC(=O)[C@@H](NC(=O)[C@H](CO)NC(=O)[C@H](CC(C)C)NC(=O)[C@H](CCC(N)=O)NC(=O)[C@H](CO)NC(=O)[C@H](C)NC(=O)CC[C@H](NC(=O)CCCCCCCCCCCCCCCCC(=O)O)C(=O)O)[C@@H](C)O)C(=O)NCC(=O)N[C@@H](CCCNC(=N)N)C(=O)N[C@@H](CC(C)C)C(=O)N[C@@H](CO)C(=O)N[C@@H](C)C(=O)N[C@@H](CCC(N)=O)C(=O)N[C@@H](CC(C)C)C(=O)N[C@@H](Cc1cnc[nH]1)C(=O)N[C@@H](CCC(=O)O)C(=O)N[C@@H](CC(C)C)C(=O)N[C@@H](C)C(=O)N[C@H](C(=O)N[C@@H](CC(C)C)C(=O)N1CCC[C@H]1C(=O)N[C@@H](CCCNC(=N)N)C(=O)N[C@H](C(=O)N[C@@H](CCC(=O)O)C(=O)N[C@H](C(=O)NCC(=O)N[C@@H](CO)C(=O)NCC(=O)N[C@@H](CO)C(=O)N1CCC[C@H]1C(N)=O)[C@@H](C)O)[C@@H](C)O)[C@@H](C)O ({C18 diacid-γGlu}-ASQLSTAALGRLSAQLHELATLPRTETGSGSP-NH2) | ≥ 200 | ≥ 200 | 10.89 | ≥ 200 | 9.37 | ≥ 200 | ≥ 200 | ≥ 200 | ≥ 200 | 11.05 | ≥ 200
CC(C)C[C@H](NC(=O)[C@H](CCC(=O)O)NC(=O)[C@H](Cc1cnc[nH]1)NC(=O)[C@H](CC(C)C)NC(=O)[C@H](CCC(=O)O)NC(=O)[C@H](C)NC(=O)[C@H](CO)NC(=O)[C@H](CC(C)C)NC(=O)[C@H](CCCNC(=N)N)NC(=O)CNC(=O)[C@H](CC(C)C)NC(=O)[C@@H](NC(=O)[C@H](C)NC(=O)[C@@H](NC(=O)[C@H](CO)NC(=O)[C@@H](NC(=O)[C@H](CCC(=O)O)NC(=O)[C@H](CO)NC(=O)[C@H](C)NC(=O)[C@H](CCC(=O)O)NC(=O)CCCCCCCCCCCCCCCCC(=O)O)C(C)C)[C@@H](C)O)C(C)C)C(=O)N[C@@H](C)C(=O)N[C@H](C(=O)N[C@@H](CC(C)C)C(=O)N1CCC[C@H]1C(=O)N[C@@H](CCCNC(=N)N)C(=O)N[C@H](C(=O)N[C@@H](CCC(=O)O)C(=O)N[C@H](C(=O)NCC(=O)N1CCC[C@H]1C(=O)N[C@@H](CCC(=O)O)C(=O)N[C@@H](CO)C(=O)N1CCC[C@H]1C(N)=O)[C@@H](C)O)[C@@H](C)O)[C@@H](C)O ({C18 diacid}-EASEVSTAVLGRLSAELHELATLPRTETGPESP-NH2) | ≥ 200 |  | 10.85 |  | 9.08 | ≥ 200 | ≥ 200 | ≥ 200 | ≥ 200 | 10.70 | ≥ 200
CCCCCCCCCCCCCCCC(=O)N[C@@H](CCC(=O)O)C(=O)N[C@@H](C)C(=O)N[C@@H](CO)C(=O)N[C@@H](CCC(=O)O)C(=O)N[C@@H](CC(C)C)C(=O)N[C@@H](CO)C(=O)N[C@H](C(=O)N[C@@H](C)C(=O)N[C@@H](C)C(=O)N[C@@H](CC(C)C)C(=O)NCC(=O)N[C@@H](CCCNC(=N)N)C(=O)N[C@@H](CC(C)C)C(=O)N[C@@H](CO)C(=O)N[C@@H](C)C(=O)N[C@@H](CCC(=O)O)C(=O)N[C@@H](CC(C)C)C(=O)N[C@@H](Cc1cnc[nH]1)C(=O)N[C@@H](CCC(=O)O)C(=O)N[C@@H](CC(C)C)C(=O)N[C@@H](C)C(=O)N[C@H](C(=O)N[C@@H](CC(C)C)C(=O)N1CCC[C@H]1C(=O)N[C@@H](CCCNC(=N)N)C(=O)N[C@H](C(=O)N[C@@H](CCC(=O)O)C(=O)N[C@H](C(=O)NCC(=O)N1CCC[C@H]1C(=O)N[C@@H](CCC(=O)O)C(=O)N[C@@H](CO)C(=O)N1CCC[C@H]1C(N)=O)[C@@H](C)O)[C@@H](C)O)[C@@H](C)O)[C@@H](C)O (Palmitoyl-EASELSTAALGRLSAELHELATLPRTETGPESP-NH2) | ≥ 200 | ≥ 200 | 10.89 | ≥ 200 | 9.36 | ≥ 200 | ≥ 200 | ≥ 200 | ≥ 200 | 11.00 | ≥ 200
CC[C@H](C)[C@H](NC(=O)[C@H](CCC(=O)O)NC(=O)[C@H](C)NC(=O)[C@H](CO)NC(=O)[C@H](CC(C)C)NC(=O)[C@H](CCCNC(=N)N)NC(=O)CNC(=O)[C@H](CC(C)C)NC(=O)[C@H](C)NC(=O)[C@H](C)NC(=O)[C@@H](NC(=O)[C@H](CO)NC(=O)[C@H](CC(C)C)NC(=O)[C@H](CCC(=O)O)NC(=O)[C@H](CO)NC(=O)[C@H](C)NC(=O)[C@H](CCC(=O)O)NC(=O)CCCCCCCCCCCCCCCCC(=O)O)[C@@H](C)O)C(=O)N[C@@H](Cc1cnc[nH]1)C(=O)N[C@@H](CCC(=O)O)C(=O)N[C@@H](CC(C)C)C(=O)N[C@@H](C)C(=O)N[C@H](C(=O)N[C@@H](CC(C)C)C(=O)N1CCC[C@H]1C(=O)N[C@@H](CCCNC(=N)N)C(=O)N[C@H](C(=O)N[C@@H](CCC(=O)O)C(=O)N[C@H](C(=O)NCC(=O)N1CCC[C@H]1C(=O)N[C@@H](CCC(=O)O)C(=O)N[C@@H](CO)C(=O)N1CCC[C@H]1C(N)=O)[C@@H](C)O)[C@@H](C)O)[C@@H](C)O ({C18 diacid}-EASELSTAALGRLSAEIHELATLPRTETGPESP-NH2) | ≥ 200 | ≥ 200 | 11.30 | ≥ 200 | 8.83 | ≥ 200 | ≥ 200 | ≥ 200 | ≥ 200 | 11.15 | ≥ 200
CC[C@H](C)[C@H](NC(=O)[C@H](C)NC(=O)[C@@H](NC(=O)[C@H](CO)NC(=O)[C@H](CC(C)C)NC(=O)[C@H](CCC(=O)O)NC(=O)[C@H](CO)NC(=O)[C@H](C)NC(=O)[C@H](CCC(=O)O)NC(=O)CCCCCCCCCCCCCCCCC(=O)O)[C@@H](C)O)C(=O)N[C@@H](CC(C)C)C(=O)NCC(=O)N[C@@H](CCCNC(=N)N)C(=O)N[C@@H](CC(C)C)C(=O)N[C@@H](CO)C(=O)N[C@@H](C)C(=O)N[C@@H](CCC(=O)O)C(=O)N[C@@H](CC(C)C)C(=O)N[C@@H](Cc1cnc[nH]1)C(=O)N[C@@H](CCC(=O)O)C(=O)N[C@@H](CC(C)C)C(=O)N[C@@H](C)C(=O)N[C@H](C(=O)N[C@@H](CC(C)C)C(=O)N1CCC[C@H]1C(=O)N[C@@H](CCCNC(=N)N)C(=O)N[C@H](C(=O)N[C@@H](CCC(=O)O)C(=O)N[C@H](C(=O)NCC(=O)N1CCC[C@H]1C(=O)N[C@@H](CCC(=O)O)C(=O)N[C@@H](CO)C(=O)N1CCC[C@H]1C(N)=O)[C@@H](C)O)[C@@H](C)O)[C@@H](C)O ({C18 diacid}-EASELSTAILGRLSAELHELATLPRTETGPESP-NH2) | ≥ 200 |  | 11.30 | ≥ 200 | 9.38 | ≥ 200 | ≥ 200 | ≥ 200 | ≥ 200 | 10.80 | ≥ 200
CC(C)C[C@H](NC(=O)[C@H](CCC(=O)O)NC(=O)[C@H](Cc1cnc[nH]1)NC(=O)[C@H](CC(C)C)NC(=O)[C@H](CCC(=O)O)NC(=O)[C@H](C)NC(=O)[C@H](CO)NC(=O)[C@H](CC(C)C)NC(=O)[C@H](CCCNC(=N)N)NC(=O)CNC(=O)[C@H](CC(C)C)NC(=O)[C@@H](NC(=O)[C@H](C)NC(=O)[C@@H](NC(=O)[C@H](CO)NC(=O)[C@@H](NC(=O)[C@H](CCC(=O)O)NC(=O)[C@H](CO)NC(=O)[C@H](C)NC(=O)CC[C@H](NC(=O)CCCCCCCCCCCCCCCCC(=O)O)C(=O)O)C(C)C)[C@@H](C)O)C(C)C)C(=O)N[C@@H](C)C(=O)N[C@H](C(=O)N[C@@H](CC(C)C)C(=O)N1CCC[C@H]1C(=O)N[C@@H](CCCNC(=N)N)C(=O)N[C@H](C(=O)N[C@@H](CCC(=O)O)C(=O)N[C@H](C(=O)NCC(=O)N[C@@H](CO)C(=O)NCC(=O)N[C@@H](CO)C(=O)N1CCC[C@H]1C(N)=O)[C@@H](C)O)[C@@H](C)O)[C@@H](C)O ({C18 diacid-γGlu}-ASEVSTAVLGRLSAELHELATLPRTETGSGSP-NH2) | ≥ 200 | ≥ 200 | 10.89 | ≥ 200 | 9.09 | ≥ 200 | ≥ 200 | ≥ 200 | ≥ 200 | 10.49 | 
